According to the supplement of paper PMC4862054:
Where “and” joins values, the source holds several entries; their conditions need not be identical. Equal values may be shown once.

Assays:
Conditions in all cases: incubation time: 72 h
MFM-223 [1] = assay: normalised viability (% of control), CellTiter-Blue; higher = more viable cells (about 100 = DMSO control)
Outline: (§1)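 The reported quantity is normalised viability at a single listed concentration of the series. Compound in 5 µl medium was pre-dispensed into 384-well plates and 20 µl of breast cancer cell suspension was added for 72 h. A 2 h, 37 °C CellTiter-Blue step (2.5 µl) preceded fluorescence reading at 560/590 nm, and plates were normalised to vehicle (100) and a positive kill control (0).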

HCC1599 [2] = assay: as above
Outline: as §1

MDA-MB-436 [3] = assay: as above
Outline: as §1

Hs578T [4] = assay: as above
Outline: as §1

MDA-MB-453 [5] = assay: as above
Outline: as §1

CAL-51 [6] = assay: as above
Outline: as §1

CAL-120 [7] = assay: as above
Outline: as §1

MFM-223 [8] = assay: drug sensitivity score (DSS), CellTiter-Blue viability (DSS (AUC-based score)); higher = stronger viability inhibition; extreme values may be limits of the assay
Experimental: (§2)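 DSRT with the CellTiter-Blue (resazurin reduction) viability readout, fluorescence 560/590 nm, 72 h incubation. Plates were normalised to DMSO and benzethonium chloride controls. DSS is computed from the area under the fitted dose-response curve (5 or 9 concentrations).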

HCC1599 [9] = assay: as above
Experimental: as §2

MDA-MB-436 [10] = assay: as above
Experimental: as §2

HCC1143 = assay: as above
Experimental: as §2

HCC1937 = assay: as above
Experimental: as §2

Hs578T [11] = assay: as above
Experimental: as §2

SK-BR-3 = assay: as above
Experimental: as §2

MDA-MB-453 [12] = assay: as above
Experimental: as §2

BT-474 = assay: as above
Experimental: as §2

CAL-148 = assay: as above
Experimental: as §2

MDA-MB-468 = assay: as above
Experimental: as §2

HDQ-P1 = assay: as above
Experimental: as §2

CAL-51 [13] = assay: as above
Experimental: as §2

MDA-MB-231 = assay: as above
Experimental: as §2

CAL-85-1 = assay: as above
Experimental: as §2

DU-4475 = assay: as above
Experimental: as §2

BT-549 = assay: as above
Experimental: as §2

CAL-120 [14] = assay: as above
Experimental: as §2

CNC(=O)c1ccccc1Sc1ccc2c(/C=C/c3ccccn3)n[nH]c2c1 [Axitinib]
normalised viability [%]
Conditions | CAL-51 [6] | CAL-120 [7] | HCC1599 [2] | Hs578T [4] | MDA-MB-436 [3] | MDA-MB-453 [5] | MFM-223 [1]
3 nM | 107 | – | – | – | – | 103 | –
10 nM | – | 91.2 | 105 | 92.1 | 103 | – | 86.7
30 nM | 102 | – | – | – | – | 108 | –
100 nM | 98.2 | – | – | – | – | 97.2 | –
1000 nM | – | 94.7 | 84.8 | 93 | 21.7 | – | 47.6
10000 nM | – | 55.2 | 62 | 54.2 | 46 | – | 47.7

Conditions | drug sensitivity score
BT-474 | 0
BT-549 | 4.37
CAL-51 [13] | 6.1
CAL-85-1 | 4.41
CAL-120 [14] | 0
CAL-148 | 5.17
DU-4475 | 6.24
HCC1143 | 2.06
HCC1599 [9] | 0
HCC1937 | 5.79
HDQ-P1 | 4.73
Hs578T [11] | 0
MDA-MB-231 | 2.62
MDA-MB-436 [10] | 13.7
MDA-MB-453 [12] | 7.1
MDA-MB-468 | 1.45
MFM-223 [8] | 11.4
SK-BR-3 | 0

Nc1ccn([C@@H]2O[C@H](CO)[C@@H](O)C2(F)F)c(=O)n1 [Gemcitabine]
normalised viability [%]
Conditions | CAL-51 [6] | CAL-120 [7] | HCC1599 [2] | Hs578T [4] | MDA-MB-436 [3] | MDA-MB-453 [5] | MFM-223 [1]
0.3 nM | 102 | – | – | – | – | 114 | –
1 nM | – | 107 | 99.4 | 106 | 98.1 | – | 99.7
3 nM | 98 | – | – | – | – | 91.7 | –
10 nM | 83.2 | – | – | – | – | 97.9 | –
100 nM | – | 41.6 | 65.9 | 62.6 | 53.1 | – | 95.6
1000 nM | – | 43 | 25.4 | 71.5 | 52.5 | – | 34.9

Conditions | drug sensitivity score
BT-474 | 0
BT-549 | 6.97
CAL-51 [13] | 17.6
CAL-85-1 | 12
CAL-120 [14] | 14.7
CAL-148 | 16.9
DU-4475 | 10.7
HCC1143 | 13.2
HCC1599 [9] | 7.74
HCC1937 | 16.2
HDQ-P1 | 0
Hs578T [11] | 7.89
MDA-MB-231 | 7.17
MDA-MB-436 [10] | 9.62
MDA-MB-453 [12] | 11
MDA-MB-468 | 16.1
MFM-223 [8] | 2.55
SK-BR-3 | 13.4

C=CCn1c(=O)c2cnc(Nc3ccc(N4CCN(C)CC4)cc3)nc2n1-c1cccc(C(C)(C)O)n1 [MK1775]
normalised viability [%]
Conditions | CAL-51 [6] | CAL-120 [7] | HCC1599 [2] | Hs578T [4] | MDA-MB-436 [3] | MDA-MB-453 [5] | MFM-223 [1]
3 nM | 98.9 | – | – | – | – | 89.6 | –
10 nM | – | 91.2 | 86.4 | 111 | 113 | – | 102
30 nM | 90.8 | – | – | – | – | 86.3 | –
100 nM | 87 | – | – | – | – | 88.7 | –
1000 nM | – | 26 | 59 | 34.4 | 37 | – | 44.3
10000 nM | – | 9.09 | 45.3 | 16.2 | 21.4 | – | 40.1

Conditions | drug sensitivity score
BT-474 | 13
BT-549 | 13.3
CAL-51 [13] | 16.2
CAL-85-1 | 11.1
CAL-120 [14] | 16
CAL-148 | 18.3
DU-4475 | 15
HCC1143 | 9.62
HCC1599 [9] | 7.82
HCC1937 | 15
HDQ-P1 | 13.6
Hs578T [11] | 14.2
MDA-MB-231 | 15
MDA-MB-436 [10] | 13.3
MDA-MB-453 [12] | 15.1
MDA-MB-468 | 11.5
MFM-223 [8] | 12.4
SK-BR-3 | 20.4

CC(=O)[C@]1(O)Cc2c(O)c3c(c(O)c2[C@@H](O[C@H]2C[C@H](N)[C@H](O)[C@H](C)O2)C1)C(=O)c1ccccc1C3=O [Idarubicin]
normalised viability [%]
Conditions | CAL-51 [6] | CAL-120 [7] | HCC1599 [2] | Hs578T [4] | MDA-MB-436 [3] | MDA-MB-453 [5] | MFM-223 [1]
0.3 nM | 106 | – | – | – | – | 108 | –
1 nM | – | 108 | 111 | 107 | 113 | – | 107
3 nM | 98 | – | – | – | – | 98.4 | –
10 nM | 44.2 | – | – | – | – | 100 | –
100 nM | – | 40.7 | 102 | 57.1 | 57.5 | – | 92.5
1000 nM | – | 11.1 | 49.2 | 5.7 | 18.8 | – | 11.5

Conditions | drug sensitivity score
BT-474 | 10.2
BT-549 | 11.5
CAL-51 [13] | 21
CAL-85-1 | 6.93
CAL-120 [14] | 14.5
CAL-148 | 19.7
DU-4475 | 18.3
HCC1143 | 8.64
HCC1599 [9] | 0.917
HCC1937 | 21.4
HDQ-P1 | 6.33
Hs578T [11] | 11.4
MDA-MB-231 | 11.9
MDA-MB-436 [10] | 9.77
MDA-MB-453 [12] | 4.55
MDA-MB-468 | 14.2
MFM-223 [8] | 6
SK-BR-3 | 17.7

O=C(CCCCCCC(=O)Nc1ccccc1)NO [Vorinostat]
Conditions | normalised viability
CAL-51 [6], 3 nM | 113% and 102%
CAL-51 [6], 30 nM | 102%
CAL-51 [6], 100 nM | 106% and 97.5%
CAL-120 [7], 10 nM | 92.3% and 99.7%
CAL-120 [7], 1000 nM | 65.1% and 68.3%
CAL-120 [7], 10000 nM | 11.5% and 18.7%
HCC1599 [2], 10 nM | 110% and 97.9%
HCC1599 [2], 1000 nM | 85.5% and 99.2%
HCC1599 [2], 10000 nM | 20.5%
Hs578T [4], 10 nM | 111% and 118%
Hs578T [4], 1000 nM | 88.4% and 87%
Hs578T [4], 10000 nM | 12.3% and 11.5%
MDA-MB-436 [3], 10 nM | 105% and 104%
MDA-MB-436 [3], 10000 nM | 41.3% and 40.6%
MDA-MB-453 [5], 3 nM | 107% and 96.8%
MFM-223 [1], 10 nM | 97.4% and 103%
MFM-223 [1], 1000 nM | 84% and 74%
MFM-223 [1], 10000 nM | 19.7% and 18.4%

Conditions | drug sensitivity score
BT-474 | 6.34 and 8.1
BT-549 | 4.56 and 4.64
CAL-51 [13] | 0.68 and 0.982
CAL-85-1 | 4.59 and 3.98
CAL-120 [14] | 9.7 and 7.55
CAL-148 | 5.26 and 4.8
HCC1143 | 4.79 and 6.75
HCC1599 [9] | 6.85 and 2.71
HCC1937 | 6.22 and 7.75
HDQ-P1 | 3.82 and 8.64
Hs578T [11] | 5.57 and 5.8
MDA-MB-231 | 5.31 and 5.33
MDA-MB-436 [10] | 8.55 and 3.68
MDA-MB-453 [12] | 11.4 and 11.6
MDA-MB-468 | 6.66 and 5.72
MFM-223 [8] | 7.1 and 6.77
SK-BR-3 | 14.2 and 12.8
